Data reported in patent US11576913B2 (priority 2018, dated 2023).
Entries after “also recorded” stand apart in the source; their conditions may differ. Read-outs that look alike come from different tables or passages of the source.

What was measured:
[1] = assay type: in vivo, rat; settings: within 48 hours of oral dosing
Text: Specifically, liquid scintillation counting (“LSC”) was used for the determination of total radiolabeled Compound (1C) material, i.e., the original or parent compound and its metabolites. […] Using ^14C as a radiolabel for pharmacokinetic studies is a recognized technique and embedding the radiolabel into the ring structure was done to limit migration or exchange of the radiolabel to non-Compound (1C)-related molecules. The specific radioactivity for the lot of [^14C]-Compound (1C) synthesized was 2.50 MBq/mg (67.6 μCi/mg) [3.49 MBq/mg (94.4 μCi/mg) if the material were to be present as the free base form] with a radiochemical purity of greater than 98.5% as determined by HPLC. The synthesized radiolabeled [^14C]-Compound (1C) was stored away from light at a temperature of −80° C. before use.
Following oral administration of [^14C]-Compound (1C) (in an appropriate vehicle, e.g., a methyl cellulose suspension) to the experimental animals, excreta samples were collected over specified time intervals. Urine samples were collected at fixed intervals post dosing. Fecal samples were homogenized and diluted prior to being solubilized. Aliquots of these samples were counted following the addition of liquid scintillation fluid thereto. Detection limits for radioactivity in the excreta samples were set at twice the background count (from blank samples) as determined by LSC. The [^14C]-Compound (1C) was stable for about 4-5 hours in urine at a temperature of about 25° C. and, when kept refrigerated at 4° C., for up to 15 days (rat urine) and 36 days (dog urine). Recovery of [^14C]-Compound (1C) from rat urine was typically from about 91.6 to about 99.1%.

[2] = tested on: healthy, non-dependent, recreational sedative users; assay: Human abuse potential study, Drug Liking VAS; assay type: in vivo; settings: for Drug Liking VAS - EMAX LSMean: N = 50, 100 point bipolar scale
Description: This study was designed as a randomized, single-dose, double-blinded, double dummy, crossover study. The study population was healthy, nondependent recreational polydrug users with a history of Central Nervous System (CNS) depressant use.
Subjects were screened no more than 28 days before check-in of period 1. Study drug was administered in each period according to the study randomization schedule. During Qualification, there was a minimum 24 hour washout period between each study drug administration. During the Treatment phase, there was a minimum 48-hour washout period between each study drug administration. Subjects were confined to the unit the day prior to, and for at least approximately 24 hours following, study drug administration during each period. If subjects were discharged between treatment periods, subjects returned to the unit the day prior to dosing.
The Qualification Phase was designed to ensure that polydrug abusing subjects with self-reported recreational CNS depressant/sedative drug experience were able to tolerate and discriminate between orally administered triazolam tablets and placebo as well as to report positive subjective effects of the drug in a controlled laboratory setting. This phase was also used to exclude “placebo responders”, i.e., subjects who report subjective effects of placebo. This phase also helped familiarize subjects with, and trained them in the use of, various scales and questionnaires that measure subjective effects.
The comparators in an abuse potential study are typically controlled substances from the same pharmacologic class as the investigational drug. However, Compound (1C) is a novel drug class for which no controlled substances/drugs of abuse are available for comparison. […] There was no evidence of other effects of interest to abusers, such as perceptual disturbances or stimulation. […] Placebo control was used to establish the frequency and magnitude of changes in clinical endpoints that may occur in the absence of active treatment as well as to minimize subject and investigator bias.
In all of the study phases, treatments were blinded to the greatest extent possible to reduce potential bias during data collection and evaluation of clinical endpoints. Because study subjects were recreational drug users and familiar with the effects of the drug substances being studied, the double-dummy technique was be used in the Treatment Phase to maintain blinding. Subjects received tablets orally in each treatment period. Placebo was matched in size and shape to each of the tablet types, and a method to blind subjects will be employed.
For each phase, subjects received treatments according to the randomization schema. During the Treatment Phase, subjects were be randomized to 1 of sequences in a 6×6 Williams square crossover design.
Compound (1C) was administered orally in an immediate release tablet comprising the pharmaceutically acceptable excipients croscarmellose sodium (FMC Health and Nutrition, Philadelphia, Pa.), hydroxypropylcellulose (Ashland Inc., Covington, Ky.), microcrystalline cellulose (Dupont, Chicago, Ill.), mannitol (SPI Pharma, Wilmington, Del.), magnesium stearate (PlusPharma Inc., Vista, Calif.), and sodium lauryl sulfate (BASF Corp, Upper St. Clair, Pa.). […] Placebo tablets matching the Compound (1C) tablets were orally administered in the same way. The placebo tablets comprised the above-described pharmaceutically acceptable excipients but with no Compound (1C). Triazolam was administered at a dose of 0.5 or 1 mg. Trial endpoints are provided below.
Peak Maximum Effect (Emax) for Drug Liking (“at this moment”) visual analog scale (“VAS”), was measured by study participants providing a score on a 100 point bipolar scale with 100 as strong liking, 50 as the neutral point of neither liking nor disliking, and 0 as strong disliking. […]

[3] = tested on: healthy subjects and subjects with insomnia; assay type: in vivo, human
Description: The highest doses tested in healthy subjects were for a 30-mg single dose and a 10-mg multiple dose (once daily nighttime dose for 14 days). The highest dose tested in subjects with insomnia was 10 mg.
The most frequent treatment-emergent adverse event (TEAEs) experienced by subjects was somnolence.

Compound: O=C(O)c1nc2ccccc2n([C@H]2C[C@H]3CCC[C@@H](C2)N3C2CC3CCCC(C3)C2)c1=O (stereo partly shown) [Compound (1C)]
- Average % Elimination, Fecal ([1]; Rat (female)): 27.9%
- Average % Elimination, Fecal + Urinary ([1]; Rat (female)): 94.7%
- Average % Elimination, Urinary ([1]; Rat (female)): 66.8%
- Average % Elimination, Fecal ([1]; Rat (male)): 41.6%
- Average % Elimination, Fecal + Urinary ([1]; Rat (male)): 96.0%
- Average % Elimination, Urinary ([1]; Rat (male)): 54.4%
- Drug Liking VAS - EMAX Diff from Placebo LSMean ([2]; 1 mg): 3.0 points
- Drug liking compared with Triazolam 0.5 and 1 mg ([2]; 1 mg): statistically smaller; also recorded: statistically less; also recorded: (1C) 1 mg was significantly lower than
- Drug liking compared with placebo (words) ([2]; 1 mg): not significantly greater than placebo; also recorded: placebo was similar to placebo (upper bound
- Drug Liking VAS - EMAX LSMean ([2]; 1 mg single oral dose): 58.1
- Drug Liking VAS - EMAX Diff from Placebo LSMean ([2]; 6 mg): 17.7 points
- Drug liking compared with Triazolam 0.5 and 1 mg ([2]; 6 mg): not statistically different
- Drug liking compared with placebo (words) ([2]; 6 mg): greater drug liking than placebo; also recorded: significantly greater
- Drug Liking VAS - EMAX LSMean ([2]; 6 mg single oral dose): 72.82
- Drug Liking VAS - EMAX Diff from Placebo LSMean ([2]; 10 mg): 21.2 points
- Drug liking compared with Triazolam 0.5 and 1 mg ([2]; 10 mg): not statistically different
- Drug liking compared with placebo (words) ([2]; 10 mg): greater drug liking than placebo; also recorded: significantly greater
- Drug Liking VAS - EMAX LSMean ([2]; 10 mg single oral dose): 76.4
- Drug Liking VAS - EMAX, Triazolam 0.5 mg - Cmpd. (1C) LSMean ([2]; Cmpd. (1C) 1 mg): 17.4
- Drug Liking VAS - EMAX, Triazolam 1 mg - Cmpd. (1C) LSMean ([2]; Cmpd. (1C) 1 mg): 20.5
- Drug Liking VAS - EMAX, Triazolam 0.5 mg - Cmpd. (1C) LSMean ([2]; Cmpd. (1C) 6 mg): 2.7
- Drug Liking VAS - EMAX, Triazolam 1 mg - Cmpd. (1C) LSMean ([2]; Cmpd. (1C) 6 mg): 5.8
- Drug Liking VAS - EMAX, Triazolam 0.5 mg - Cmpd. (1C) LSMean ([2]; Cmpd. (1C) 10 mg): −0.8
- Drug Liking VAS - EMAX, Triazolam 1 mg - Cmpd. (1C) LSMean ([2]; Cmpd. (1C) 10 mg): 2.3
- tolerability ([3]; 6 mg, nighttime dosing, healthy subjects and those with insomnia): well tolerated
- safety and tolerability ([3]; across all tested dose levels): safe and well tolerated
- serious adverse events (SAEs) ([3]; across all tested dose levels): no serious adverse events
- most frequent treatment-emergent adverse event ([3]; completed clinical studies): somnolence
- vital signs and electrocardiograms (ECGs) ([3]; completed clinical studies): no clinically significant findings
- next day residual effects ([3]; dose equal or lower than 2 mg, after 8 hours post dosing): dose-dependent and generally decreased (back to placebo levels)
- laboratory findings ([3]; including crystalluria or hematuria): No concerning laboratory findings
